Data taken from the supplement of paper PMC10933438, “Inhibition of urease-mediated ammonia production by 2-octynohydroxamic acid in hepatic encephalopathy” (Nature Communications, 2024).

Columns and labels:
Experiment in all cases: revertant-positive wells per 48 wells (Ames fluctuation test); higher = more mutagenic; extreme values may be limits of the assay
Conditions in all cases: exposure time: 90 min
[1] = tested on: Salmonella typhimurium TA1535
Experimental: (§1)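 Ames MPF Penta 1 microplate fluctuation assay (Xenometrix): bacteria exposed to compound (in DMSO) for 90 min at 37 °C with or without rat liver S9 fraction, then 2-day selection in histidine/tryptophan-free pH-indicator medium in 384-well plates; read-out is the number of revertant (yellow) wells out of 48, triplicate; compound considered mutagenic at >=2-fold over negative (DMSO) control baseline. Zero wells at high doses reflect cytotoxicity.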

[2] = tested on: Salmonella typhimurium TA1537
Experimental: as §1

[3] = tested on: Salmonella typhimurium TA98
Experimental: as §1

[4] = tested on: Salmonella typhimurium TA100
Experimental: as §1

CCCCCC#CC(=O)NO [2-octynohydroxamic acid]
revertant-positive wells per 48 wells
Conditions | 0.01 mM | 0.05 mM | 0.5 mM | 1 mM | 5 mM | 10 mM
[1], S9 metabolic activation: with S9 | 0.333 | 2 | 0.667 | 1.33 | 0 | 0
[1], S9 metabolic activation: without S9 | 1 | 1 | 1.67 | 0.667 | 0 | 0
[2], S9 metabolic activation: with S9 | 0.333 | 1.33 | 0 | 0 | 0 | 0
[2], S9 metabolic activation: without S9 | 1 | 0.333 | 1.33 | 3 | 0 | 0
[3], S9 metabolic activation: with S9 | 0 | 1 | 1 | 0.333 | 0 | 0
[3], S9 metabolic activation: without S9 | 1.67 | 0.333 | 1.67 | 0 | 0 | 0
[4], S9 metabolic activation: with S9 | 9.33 | 6 | 0.333 | 0 | 0 | 0
[4], S9 metabolic activation: without S9 | 3 | 3 | 1.33 | 0 | 0 | 0

CC(=O)NO [acetohydroxamic acid]
revertant-positive wells per 48 wells, [4]
Conditions | 0.01 mM | 0.05 mM | 0.5 mM | 1 mM | 5 mM | 10 mM
S9 metabolic activation: with S9 | – | 7.33 | 7.33 | 10.3 | 15 | 18.7
S9 metabolic activation: without S9 | 3.67 | 4.33 | – | 5.67 | 13.3 | 17.3

CCCCCCCC(=O)NO [octanohydroxamic acid]
revertant-positive wells per 48 wells
Conditions | 0.01 mM | 0.05 mM | 0.5 mM | 1 mM | 5 mM | 10 mM
[1], S9 metabolic activation: with S9 | – | 2 | – | – | – | 0
[1], S9 metabolic activation: without S9 | 1 | – | – | – | 0 | 0
[2], S9 metabolic activation: with S9 | – | 1 | 0 | 0 | 0 | 0
[2], S9 metabolic activation: without S9 | – | – | – | – | 0 | 0
[4], S9 metabolic activation: with S9 | 3.67 | 6.33 | – | – | 5 | 0
[4], S9 metabolic activation: without S9 | 5 | 7.67 | 6 | 8.67 | 0 | 0
